Measured values as given in patent US20220386863A1, “SMART CONTACT LENS FOR DIAGNOSIS AND TREATMENT OF DRY EYE SYNDROME” (priority 2020, published 2022).
Where two headings read alike, the source gives them in different places.

Tested on: anti-VEGF aptamer
Conditions: for change in current on injection of VEGF: FET sensor with anti-VEGF aptamer, PBS base current, FIG. 2A
From the text: Electrodes using a gold thin film and silver nanowires were patterned on a silicon substrate using a photolithography method, and a semi-conductive layer was placed between the electrodes. In this case, silver nanowires were used as a material of the semi-conductive layer. Thereafter, an aptamer (anti-VEGF aptamer) capable of being coupled to a dry eye syndrome biomarker was coupled to the semi-conductive layer.
Specifically, a silver nanowire channel was immersed in an 3-aminopropyldimethyl-ethoxysilane (APDES)/ethanol solution to introduce an amine group, and the silver nanowire channel was immersed in a sodium carbonate buffer including 1 wt % succinic anhydride to substitute the amine group with a carboxyl group. Then, after the silver nanowire channel is immersed in a phosphate buffered saline (PBS) solution, 1-ethyl-3(3-dimethyl aminopropyl)carbodiimide hydro-chloride (EDC) and sulfa N-hydroxysuccinimide (sulfa-NHS) were added to form an amide group. An aptamer solution was introduced into the channel, into which the amide group was introduced, to couple the channel and the probe. ?
A VEGF was injected into the sensor in real time to monitor an intensity of a current flowing in the silver nanowire channel.
Specifically, 200 μL of PBS was dropped onto the FET sensor to set a base current for 30 minutes, and then, a change in current generated by injecting a specific concentration of a VEGF was observed. ?

vascular endothelial growth factor [VEGF]
change in current on injection of VEGF (104 pM VEGF injected): no difference in current
change in current on injection of VEGF (1.04 nM VEGF injected): large change
change in current on injection of VEGF (52 nM VEGF injected): large change
stabilized current after VEGF injection, averaged per section (compared with the initial base current, FIG. 2B): higher than an initial base current
